PubChem BioAssay AID1918949 (Molecular Pharmacology Branch, DTP, NCI, 2023)
Where “and” joins values, the source holds several entries; their conditions need not be identical. Equal values may be shown once.

Test system: K24384-001-R-PDC complex spheroid viability
Test: Anticancer human tumor K24384-001-R-PDC patient-derived pancreatic adenocarcinoma cell line growth inhibition
Details: for viability, T/C: stronger effect = lower value
Outline: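 Drug combinations with the LSD1 inhibitor iadademstat tested on tumor cells co-cultured as spheroids with endothelial cells and mesenchymal stem cells. Concentrations descended in half-log increments from clinical Cmax or 10 microM.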

[1] = curve of first compound, second compound 0.1 µM
[2] = curve of first compound, second compound 0.316 µM
[3] = curve of first compound, second compound 1 µM
[4] = curve of first compound, second compound 3.16 µM
[5] = curve of first compound, second compound 10 µM
[6] = second compound 0.1 µM, first compound 0.000949 µM
[7] = second compound 0.1 µM, first compound 0.003 µM
[8] = second compound 0.1 µM, first compound 0.00949 µM
[9] = second compound 0.1 µM, first compound 0.03 µM
[10] = second compound 0.1 µM, first compound 0.0949 µM
[11] = second compound 0.1 µM, first compound 0.3 µM
[12] = second compound 0.316 µM, first compound 0.000949 µM
[13] = second compound 0.316 µM, first compound 0.003 µM
[14] = second compound 0.316 µM, first compound 0.00949 µM
[15] = second compound 0.316 µM, first compound 0.03 µM
[16] = second compound 0.316 µM, first compound 0.0949 µM
[17] = second compound 0.316 µM, first compound 0.3 µM
[18] = second compound 1 µM, first compound 0.000949 µM
[19] = second compound 1 µM, first compound 0.003 µM
[20] = second compound 1 µM, first compound 0.00949 µM
[21] = second compound 1 µM, first compound 0.03 µM
[22] = second compound 1 µM, first compound 0.0949 µM
[23] = second compound 1 µM, first compound 0.3 µM
[24] = second compound 3.16 µM, first compound 0.000949 µM
[25] = second compound 3.16 µM, first compound 0.003 µM
[26] = second compound 3.16 µM, first compound 0.00949 µM
[27] = second compound 3.16 µM, first compound 0.03 µM
[28] = second compound 3.16 µM, first compound 0.0949 µM
[29] = second compound 3.16 µM, first compound 0.3 µM
[30] = second compound 10 µM, first compound 0.000949 µM
[31] = second compound 10 µM, first compound 0.003 µM
[32] = second compound 10 µM, first compound 0.00949 µM
[33] = second compound 10 µM, first compound 0.03 µM
[34] = second compound 10 µM, first compound 0.0949 µM
[35] = second compound 10 µM, first compound 0.3 µM
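Also: spheroids exposed to agents for seven days before luminescence viability reading.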
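For viability, T/C in this document: 100% = DMSO vehicle control viability.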

## Nc1ccn(C2OC(CO)C(O)C2(F)F)c(=O)n1 (configuration not stated) + NC1CCC(NC2CC2c2ccccc2)CC1
[1]
  IC50: 57.9 nM
[2]
  IC50: 49.6 nM
[3]
  IC50: 44.5 nM
[4]
  IC50: 87.6 nM
[5]
  IC50: 53.2 nM
[6]
  viability, T/C: 77.4%
[7]
  viability, T/C: 68.3%
[8]
  viability, T/C: 67.8%
[9]
  viability, T/C: 53.5%
[10]
  viability, T/C: 46.8%
[11]
  viability, T/C: 33%
[12]
  viability, T/C: 73.9%
[13]
  viability, T/C: 72%
[14]
  viability, T/C: 67.3%
[15]
  viability, T/C: 52.9%
[16]
  viability, T/C: 46%
[17]
  viability, T/C: 39.5%
[18]
  viability, T/C: 85.9%
[19]
  viability, T/C: 68.1%
[20]
  viability, T/C: 62.4%
[21]
  viability, T/C: 50.4%
[22]
  viability, T/C: 48%
[23]
  viability, T/C: 41.9%
[24]
  viability, T/C: 84.3%
[25]
  viability, T/C: 77.5%
[26]
  viability, T/C: 70.4%
[27]
  viability, T/C: 59.9%
[28]
  viability, T/C: 48.7%
[29]
  viability, T/C: 41.3%
[30]
  viability, T/C: 66.7%
[31]
  viability, T/C: 68.5%
[32]
  viability, T/C: 69.3%
[33]
  viability, T/C: 54.6%
[34]
  viability, T/C: 45.8%
[35]
  viability, T/C: 39.2%

## CCc1c2c(nc3ccc(O)cc13)-c1cc3c(c(=O)n1C2)COC(=O)[C@]3(O)CC + NC1CC1c1ccc(-c2cccc(O)c2)cc1
[1]
  IC50: < 0.949 nM
[2]
  IC50: < 0.949 nM
[3]
  IC50: < 0.949 nM
[4]
  IC50: < 0.949 nM
[5]
  IC50: < 0.949 nM
[6]
  viability, T/C: 38.8%
[7]
  viability, T/C: 32.7%
[8]
  viability, T/C: 28.5%
[9]
  viability, T/C: 8.07%
[10]
  viability, T/C: 5.66%
[11]
  viability, T/C: 4.56%
[12]
  viability, T/C: 34.2%
[13]
  viability, T/C: 30.9%
[14]
  viability, T/C: 31.5%
[15]
  viability, T/C: 10.9%
[16]
  viability, T/C: 8.49%
[17]
  viability, T/C: 5.16%
[18]
  viability, T/C: 36.8%
[19]
  viability, T/C: 34.2%
[20]
  viability, T/C: 26.4%
[21]
  viability, T/C: 7.42%
[22]
  viability, T/C: 4.74%
[23]
  viability, T/C: 4.43%
[24]
  viability, T/C: 37.1%
[25]
  viability, T/C: 33.7%
[26]
  viability, T/C: 25.8%
[27]
  viability, T/C: 7.05%
[28]
  viability, T/C: 4.62%
[29]
  viability, T/C: 4.99%
[30]
  viability, T/C: 43.4%
[31]
  viability, T/C: 34.2%
[32]
  viability, T/C: 24%
[33]
  viability, T/C: 5.88%
[34]
  viability, T/C: 5.79%
[35]
  viability, T/C: 4.12%

## CC(C)CC(NC(=O)CNC(=O)c1cc(Cl)ccc1Cl)B1OC(=O)CC(CC(=O)O)(C(=O)O)O1 (configuration not stated)
Compound 0.000316 µM
  viability, T/C: 100% and 107%
Compound 0.001 µM
  viability, T/C: 103% and 86.3%
Compound 0.00316 µM
  viability, T/C: 91.3% and 79.2%
Compound 0.01 µM
  viability, T/C: 42.1% and 59.8%
Compound 0.0316 µM
  viability, T/C: 4.17% and 4.53%
Compound 0.1 µM
  viability, T/C: 0.95% and 1.47%
Curve of compound
  IC50: 8.28 nM and 11.1 nM

## Nc1ccn(C2OC(CO)C(O)C2(F)F)c(=O)n1 (configuration not stated) + NC1CC1c1ccc(-c2cccc(O)c2)cc1
[1]
  IC50: 28.3 nM
[2]
  IC50: 43 nM
[3]
  IC50: 38.1 nM
[4]
  IC50: 46 nM
[5]
  IC50: 90.9 nM
[6]
  viability, T/C: 82.5%
[7]
  viability, T/C: 72.9%
[8]
  viability, T/C: 63.4%
[9]
  viability, T/C: 48%
[10]
  viability, T/C: 41.9%
[11]
  viability, T/C: 37.2%
[12]
  viability, T/C: 87.9%
[13]
  viability, T/C: 73.4%
[14]
  viability, T/C: 68%
[15]
  viability, T/C: 49.5%
[16]
  viability, T/C: 44.9%
[17]
  viability, T/C: 35.8%
[18]
  viability, T/C: 75%
[19]
  viability, T/C: 84.5%
[20]
  viability, T/C: 63.6%
[21]
  viability, T/C: 53.2%
[22]
  viability, T/C: 41.1%
[23]
  viability, T/C: 32%
[24]
  viability, T/C: 98.5%
[25]
  viability, T/C: 81.2%
[26]
  viability, T/C: 67.1%
[27]
  viability, T/C: 56%
[28]
  viability, T/C: 42.1%
[29]
  viability, T/C: 31.5%
[30]
  viability, T/C: 103%
[31]
  viability, T/C: 99%
[32]
  viability, T/C: 95.5%
[33]
  viability, T/C: 69.3%
[34]
  viability, T/C: 51.3%
[35]
  viability, T/C: 40.2%

## Cn1ncnc1C1c2n[nH]c(=O)c3cc(F)cc(c23)NC1c1ccc(F)cc1 (configuration not stated) + NC1CCC(NC2CC2c2ccccc2)CC1
[1]
  IC50: > 100 nM
[2]
  IC50: > 100 nM
[3]
  IC50: > 100 nM
[4]
  IC50: > 100 nM
[5]
  IC50: > 100 nM
Second compound 0.1 µM, first compound 0.000316 µM
  viability, T/C: 92.4%
Second compound 0.1 µM, first compound 0.001 µM
  viability, T/C: 115%
Second compound 0.1 µM, first compound 0.00316 µM
  viability, T/C: 81.7%
Second compound 0.1 µM, first compound 0.01 µM
  viability, T/C: 88.6%
Second compound 0.1 µM, first compound 0.0316 µM
  viability, T/C: 80%
Second compound 0.1 µM, first compound 0.1 µM
  viability, T/C: 73.7%
Second compound 0.316 µM, first compound 0.000316 µM
  viability, T/C: 96.5%
Second compound 0.316 µM, first compound 0.001 µM
  viability, T/C: 92.8%
Second compound 0.316 µM, first compound 0.00316 µM
  viability, T/C: 104%
Second compound 0.316 µM, first compound 0.01 µM
  viability, T/C: 93.5%
Second compound 0.316 µM, first compound 0.0316 µM
  viability, T/C: 104%
Second compound 0.316 µM, first compound 0.1 µM
  viability, T/C: 72.4%
Second compound 1 µM, first compound 0.000316 µM
  viability, T/C: 104%
Second compound 1 µM, first compound 0.001 µM
  viability, T/C: 100%
Second compound 1 µM, first compound 0.00316 µM
  viability, T/C: 89.5%
Second compound 1 µM, first compound 0.01 µM
  viability, T/C: 88.7%
Second compound 1 µM, first compound 0.0316 µM
  viability, T/C: 84.8%
Second compound 1 µM, first compound 0.1 µM
  viability, T/C: 70.2%
Second compound 3.16 µM, first compound 0.000316 µM
  viability, T/C: 92.9%
Second compound 3.16 µM, first compound 0.001 µM
  viability, T/C: 95.2%
Second compound 3.16 µM, first compound 0.00316 µM
  viability, T/C: 94.6%
Second compound 3.16 µM, first compound 0.01 µM
  viability, T/C: 98.5%
Second compound 3.16 µM, first compound 0.0316 µM
  viability, T/C: 98.6%
Second compound 3.16 µM, first compound 0.1 µM
  viability, T/C: 82.1%
Second compound 10 µM, first compound 0.000316 µM
  viability, T/C: 85.6%
Second compound 10 µM, first compound 0.001 µM
  viability, T/C: 105%
Second compound 10 µM, first compound 0.00316 µM
  viability, T/C: 94.7%
Second compound 10 µM, first compound 0.01 µM
  viability, T/C: 103%
Second compound 10 µM, first compound 0.0316 µM
  viability, T/C: 83.1%
Second compound 10 µM, first compound 0.1 µM
  viability, T/C: 91.6%
